According to ChEMBL document CHEMBL2150934, “Identification of a potent and metabolically stable series of fluorinated diphenylpyridylethanamine-based cholesteryl ester transfer protein inhibitors” (Bioorg Med Chem Lett, 2012):

Tests used:
Format in all cases: ADME, organism-based
[1] = Plasma concentration in transgenic mouse expressing human CETP/apoB100 at 30 mg/kg, po at 2 hrs; parameters: dose 30 mg/kg, route oral
[2] = AUC (0 to 8 hrs) in transgenic mouse expressing human CETP/apoB100 at 30 mg/kg, po; parameters: time < 8 hr, dose 30 mg/kg, route oral; details: plasma
[3] = Plasma concentration in transgenic mouse expressing human CETP/apoB100 at 30 mg/kg, po at 4 hrs; parameters: dose 30 mg/kg, route oral
[4] = Plasma concentration in transgenic mouse expressing human CETP/apoB100 at 30 mg/kg, po at 8 hrs; parameters: dose 30 mg/kg, route oral

- concentration at 2 h [1]: 1070 nM
- AUC(0-t) at 8 h [2]: 3.2 µM·h
- concentration at 4 h [3]: 249 nM
- concentration at 8 h [4]: 112 nM
Structure (SMILES): O=C(N[C@@H]1CCC(F)(F)C1)N[C@@](Cc1ccccc1)(c1cc(F)cc(OC(F)(F)C(F)F)c1)c1ccc(Cl)cn1
